Key:
[1] = molecular target: T1, FtlA (Francisella tularensis, UniProt A0AAI8BGE8)
T1 construct: gene FTL_0430

[2] = molecular target: T1, FtlA; remark: listed apart in the source

T1 sequence (A0AAI8BGE8 1-293): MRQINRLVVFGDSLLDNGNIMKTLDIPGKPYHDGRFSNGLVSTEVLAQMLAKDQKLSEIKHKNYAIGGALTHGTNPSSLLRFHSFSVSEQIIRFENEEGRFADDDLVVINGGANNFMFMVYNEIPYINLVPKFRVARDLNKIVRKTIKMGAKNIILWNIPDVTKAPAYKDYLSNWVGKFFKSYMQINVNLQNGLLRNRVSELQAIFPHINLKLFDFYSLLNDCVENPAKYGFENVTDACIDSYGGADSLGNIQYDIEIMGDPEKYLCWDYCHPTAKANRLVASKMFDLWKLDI

Structure (SMILES)	p-nitrophenyl ester hydrolysis by purified OMVs [1]	halo (clear zone) assay on agar plates [2]
CCCC(=O)Oc1ccc([N+](=O)[O-])cc1 [p-nitrophenyl butyrate (C4)]	OMVs of the wild-type LVS hydrolyzed p-nitrophenyl butyrate (C4) efficiently	–
CCCC(=O)OCC(COC(=O)CCC)OC(=O)CCC [tributyrin]	–	E. coli strain harboring the FtlA-expressing plasmid (pST2000) showed a clear zone of halo

Source: PMC5567169 (Emerging Microbes & Infections, 2017)
